We go through 17 compounds from patent US11607432B2, “Probiotic compositions containing clostridiales for inhibiting inflammation” (Evelo Biosciences, Inc., priority 2014, dated 2023).

Entries after “also recorded” stand apart in the source; their conditions may differ. Like-named read-outs stand apart in the source and are kept apart here.

Data set [1] deals with gut microbiome. Put plainly: Normal human volunteer study of D-xylose: changes in the gut microbiome (stool 16S sequencing). It counts as in vivo. As to conditions: for alpha diversity of the gut microbiome: over time on study.
The nature of data set [2]: Normal human volunteer study of D-xylose: serum CRP, serum cytokines and T-cell markers. The data set is classed as in vivo. An excerpt: Blood was collected at pre-specified pre- and post-ingestion time points to evaluate C-reactive protein (CRP), serum cytokines (tumor necrosis factor alpha [TNF-α], interleukin [IL]-2, IL-6, interferon gamma [IFN-γ], and IL-10), and T-cell markers CD3, CD4, CD8, CD25, and FOXP3. Plasma was also stored and may be tested for biomarkers and/or metabolic markers for up to 7 years.
Summary statistics (n, mean, standard deviation, median, minimum, and maximum) were presented for serum concentrations of CRP, flow cytometry T-cell markers (CD3, CD4, CD8, CD25, and FOXP3), and cytokines (TNF-α, IL-2, IL-6, IFN-γ, and IL-10) as per their nominal time points.

The conditions of data set [3]: human, in vivo. The procedure: D-xylose is a carbon source generally preferred by anaerobic bacteria. […] A parallel, double-blind, 5 cohort escalation food safety study was conducted to examine D-xylose in normal human volunteers. The study was a double-blind, single-center, parallel group study designed to evaluate the tolerability and potential microbiome changes induced by ingestion of D-xylose at 5 different amounts in healthy, adult volunteers enrolled at 1 study center in the United States (US).
Subjects were screened for eligibility within 21 days prior to the first planned ingestion of study sweetener on Day 1 (Baseline). […]
Subjects returned to the study center weekly on Days 8, 15, 22, and 28 for ingestion, tolerability, and compliance evaluations. Safety was evaluated on a continual basis through adverse events (AE) monitoring, clinical laboratory measurements, vital sign monitoring, physical examinations, electrocardiograms (ECGs), telephone follow-up, and electronic subject ingestion diaries. Stool was collected pre-ingestion and at pre-specified time points, and post-ingestion samples were evaluated for changes in the gut microbiome compared with Baseline for all subjects. […]
Safety was evaluated on a continual basis through AE monitoring, clinical laboratory measurements, vital sign monitoring, physical examinations, ECGs, telephone follow-up, and electronic subject ingestion diaries. […]

In data set [4] the test system is intestinal permeability. The data set is classed as in vivo, mice.
The conditions of data set [5]: cited from earlier work.
In data set [6] the test system is human PBMCs. Put plainly: Flow cytometry of T cell populations in human PBMCs cultured with commensal bacteria. It counts as cell-based. Conditions: compared to PBMCs alone (control); percent of CD3ε+CD4+ cells. The method, then: In order to determine whether exposure to commensal bacteria may polarize T cells toward a particular phenotype, flow cytometry analysis was performed on human PBMCs cultured with various commensal bacteria as described above. The cells recovered from culture were washed in phosphate-buffered saline and stained with a cocktail of fluorescently labeled antibodies against specific cell surface protein markers to allow for the detection of Th1 cells (CXCR3^+CCR6^−), Th2 cells (CXCR3^−CCR6^−), Th17 cells (CXCR3^+CCR6^+) and Tregs (CD25^+CD127^lo). Negative control wells contained PBMCs in culture medium alone and positive control wells contained PBMCs+LPS (100 ng/ml) as a known immune stimulus. The commensal bacteria examined inluded: Epv 1: R. gnavus; Epv 3: B. luti; Epv 2: E. rectale; Epv 5: B. wexlerae; Epv. 8: E. faecalis; Epv 20: B. obeum, ATCC 29174; Epv 21: B. product, ATCC 27340; Epv 24: B. hansenii, ATCC 27752. […] For example, the optimal T cell profile to address pro-inflammatory disorders such as GVHD would consist of ↑Treg, ↓Th17, ↓ or unchanged Th1, and ↑Th2. This phenotype was induced by many of the bacteria tested.

Data set [7] concerns human peripheral blood mononuclear cells (PBMCs). Put plainly: Cytokine release by human PBMCs incubated with commensal bacteria alone or in combination with E. faecalis (Luminex). The data set is classed as cell-based. Conditions: for ability to reduce/counteract the induction of pro-inflammatory cytokines by EPV 8 (incl. IL-6, MCP-1, IL-12p70, IFNγ): combination with EPV 8; for anti-inflammatory cytokine profile for a Th-1-driven condition such as GVHD: overall assessment, FIG. 11.

Setting [8] is: bacterium alone, 24, 48 and 72 hours.
Where [9] appears, read: Table 1, NIAID priority pathogen category, OP or N.

Consider `O=C[C@H](O)[C@@H](O)[C@H](O)CO` [D-xylose], for which, in data set [1] (normal individuals and normal mice), the “changes in the gut microbiome, overall” value was “subtle changes in the gut microbiome”. Also, in data set [1] (regardless of ingestion amount), the “community composition of the gut microbiome over time” value is recorded as “no significant changes in community composition” and the “alpha diversity of the gut microbiome” value is “no apparent significant impact”. Also, the “alpha diversity of the gut microbiome” value in data set [1] (regardless of ingestion amount, listed as xylose) is on record as “no major shifts in the microbiome alpha diversity”. For the same compound, in data set [1] (xylose TID at 1, 2, 8, 12.5 or 15 grams, FIG. 31), the “Chao diversity index (community richness) over time” value is “overall decrease”. For the same compound, the “levels of serum interferon gamma over time” value in data set [2] (2 g and 15 g D-xylose cohorts, FIG. 30) was “trend for reduced levels”. For the same compound, in data set [2] (any ingestion amount), the “total T-cells or any T-cell subsets over time” value is on record as “No consistent or clinically meaningful changes over time”. For the same compound, in data set [2] (human, in vivo), the “subjects with normal serum CRP at Baseline with at least 1 post-ingestion CRP value >2.9 mg/L” value came to 8.3%. In addition, the “serum cytokines (TNF-α, IL-2, IL-6, IFN-γ, IL-10) over time” value in data set [2] (most data points below the limit of quantitation, any ingestion amount) is listed as “did not indicate any consistent or clinically meaningful changes over time”. Further, the “SAEs, severe AEs, subject deaths” value in data set [3] is reported as “No SAEs, severe AEs, or subject deaths were reported”. Moreover, in data set [4] (mouse, in vivo), the “basal levels of serum endotoxin” value is listed as “reduced these basal levels over time; also recorded: reduces basal levels of serum endotoxin”, the “effect of xylose on the increase in serum endotoxin level caused by cipro” value was “appeared to counteract the increase in serum endotoxin level; also recorded: counteracts the endotoxin increase” and the “effect of xylose on the increase in serum endotoxin level caused by enro” value was “but not enro”.

In the case of `CCN1CCN(c2cc3c(cc2F)c(=O)c(C(=O)O)cn3C2CC2)CC1` [enro, enrofloxacin, reference compound], in data set [4] (0.25 g/L in drinking water day −7 to day −2, measured 2 days after a 5 day course (day 0)), the “serum endotoxin levels after antibiotic treatment” value is on record as “increase in serum endotoxin levels”. For the same compound, in data set [4] (by day 14), the “serum endotoxin levels over time after antibiotic treatment” value is recorded as “return to baseline by day 14”.

On to Bacteroides fragilis, for which the “Pathogen Status” value in data set [5] (Table 1, OTU list, NIAID priority pathogen category, OP or N) is given as “N”.

In the case of Blautia Hansenii ATCC27752 [EPV 24], the “proportion of T cells with a regulatory phenotype (Tregs, CD25+CD127lo)” value (“proportion of T cells” below) in data set [6] is reported as “greatest impact”.

Consider Blautia luti (BlnIX) [EPV 114], for which the “low induction of pro-inflammatory cytokines and/or positive induction of anti-inflammatory cytokines, and ability to counteract the inflammatory activity of E. faecalis (candidate criteria)” value (“low induction” for short) in data set [7] is listed as “meeting these criteria”.

Regarding Blautia luti [EPV 3], the “intrinsic inflammatory activity (induction of pro-inflammatory cytokines) compared to EPV 8” value in data set [7] (bacterium alone) is “relatively low intrinsic inflammatory activity”. For the same compound, in data set [7] (setting [8]), the “induction of Th1-related cytokines (IFN-γ, IL-12p70, IL-6, IL-2, TNFα)” value is “minimal induction”; the “induction of monocyte, macrophage and neutrophil-related inflammatory cytokines (MCP-1, MIP1β, MIP1α, RANTES, IL-1α, IL1β, IFN-α2, IL-8)” value is “least inflammatory”. The “countering the effect of E. faecalis (Epv 8) on monocyte, macrophage and neutrophil-related inflammatory cytokines” value in data set [7] (combination with E. faecalis) is reported as “most effective”. In addition, in data set [7] (combination with E. faecalis, 24, 48 and 72 hours), the “counteracting induction of Th1-related cytokines by E. faecalis (Epv 8)” value was “most effective”. Moreover, in data set [7], the “ability to reduce/counteract the induction of pro-inflammatory cytokines by EPV 8 (incl. IL-6, MCP-1, IL-12p70, IFNγ)” value is “able to reduce the induction of pro-inflammatory cytokines” and the “anti-inflammatory cytokine profile for a Th-1-driven condition such as GVHD” value is on record as “significantly desirable anti-inflammatory profile; also recorded: desirable anti-inflammatory cytokine profile”.

For Blautia obeum [EPV 78], in data set [7], the “low induction” value is listed as “meeting these criteria”.

With Blautia producta ATCC 27340 [EPV 21], the “proportion of T cells” value in data set [6] is listed as “greatest impact”.

As for Blautia wexlerae [EPV 5], the “induction of IL-10” value in data set [7] (24, 48 and 72 hours) is “most potent”. Moreover, in data set [7], the “ability to reduce/counteract the induction of pro-inflammatory cytokines by EPV 8 (incl. IL-6, MCP-1, IL-12p70, IFNγ)” value is given as “little ability to counteract” and the “anti-inflammatory cytokine profile for a Th-1-driven condition such as GVHD” value was “suboptimal anti-inflammatory profile”.

Clostridium glycolicum: in data set [5] (setting [9]), the “Pathogen Status” value was “N”.

For the compound Clostridium paraputrificum, the “Pathogen Status” value in data set [5] (setting [9]) is “N”.

Regarding Clostridium sordellii, in data set [5] (setting [9]), the “Pathogen Status” value is reported as “N”.

In the case of Clostridium tertium, the “Pathogen Status” value in data set [5] (setting [9]) is “N”.

Take “Enterococcus faecalis [EPV 8, reference compound]”: the “induction of Th1-related cytokines (IFN-γ, IL-12p70, IL-6, IL-2, TNFα)” value in data set [7] was “induced high levels”. Besides, the “proportion of T cells” value in data set [6] is “little or no increase”. The “Pathogen Status” value in data set [5] (OTU of Table 1) is reported as “N”.

Consider Eubacterium rectale [EPV 2], for which, in data set [7] (setting [8]), the “induction of monocyte, macrophage and neutrophil-related inflammatory cytokines (MCP-1, MIP1β, MIP1α, RANTES, IL-1α, IL1β, IFN-α2, IL-8)” value is recorded as “least inflammatory”. In addition, the “countering the effect of E. faecalis (Epv 8) on monocyte, macrophage and neutrophil-related inflammatory cytokines” value in data set [7] (combination with E. faecalis) is recorded as “most effective”.

As to Eubacterium rectale [EPV 35], the “low induction” value in data set [7] was “meeting these criteria”.

On to Ruminococcus gnavus [EPV 1], for which the “eliciting Th2 cytokines (IL-13, IL-4, IL-5)” value is recorded as “most active” in data set [7] (bacterium on its own, 24, 48 and 72 hours); “most active” in data set [7] (in the presence of E. faecalis, 24, 48 and 72 hours).
